Where two headings read alike, the source gives them in different places.
Columns and labels:
Type in all cases: cell-based
E. coli CAO3 = assay: microbe, parasite or virus in culture; conditions: Escherichia coli, CAO3, read-out: inhibition zones
[1] = system: lomefloxacin resistant mutants of Mycobacterium smegmatis; assay: microbe, parasite or virus in culture; conditions: Mycolicibacterium smegmatis; for zone of inhibition at 100 µg/disc: 100 μg/disc
E. coli cells [2] = assay: microbe, parasite or virus in culture; conditions: Escherichia coli
[3] = system: E. coli strain ET8000 (gyr mutation); assay: microbe, parasite or virus in culture; conditions: Escherichia coli
E. coli CAO3 (revert) = assay: microbe, parasite or virus in culture; conditions: Escherichia coli, read-out: inhibition zones
[4] = system: Mycobacterium smegmatis wild type strain MC^2; assay: microbe, parasite or virus in culture; conditions: Mycolicibacterium smegmatis
[5] = system: multidrug resistant bacteria
[6] = system: Escherchia coli strain CA8000; assay: organism not typed; conditions: for zone of inhibition at 50 µg/disc: 50 μg/disc; for zone of inhibition at 100 µg/disc: 100 μg/disc
Excerpt: Activity of the Compound of the Present Invention Thymol at Different pH in Escherchia coli Strain CA8000
The above table clearly indicate that the activity of the present compound is maximum at neutral pH (7.00).

[7] = system: E. coli strain CA8000 (wild type); assay: microbe, parasite or virus in culture; conditions: Escherichia coli
[8] = system: nalidixic acid resistant mutants of Escherichia coli; assay: microbe, parasite or virus in culture; conditions: for inhibition zones / zone of inhibition at 50 µg/disc: 50 μg/disc; for zone of inhibition at 100 µg/disc / zone of inhibition at 250 µg/disc / zone of inhibition at 50 µg/disc: Escherichia coli; for zone of inhibition at 100 µg/disc: 100 μg/disc; for zone of inhibition at 250 µg/disc: 250 μg/disc
[9] = system: Ethidium bromide resistant strain of Mycobacterium smegmetis; assay: microbe, parasite or virus in culture; conditions: read-out: Activity of thymol (zone)
[10] = system: lomefloxacin resistant mutants of Escherichia coli; assay: microbe, parasite or virus in culture
[11] = system: E. coli strain DH5α (gyr mutation); assay: microbe, parasite or virus in culture; conditions: Escherichia coli
E. coli cells [12] = assay: Disk diffusion assay, synergistic effect of thymol with Mentha hybrid oil; conditions: Escherichia coli; thymol 50 μg/disc
[13] = read-out: inhibition zones, CAN 102
[14] = read-out: inhibition zones, CAN 104
[15] = read-out: inhibition zones, CAN 105
[16] = read-out: inhibition zones, CAN 106
[17] = read-out: inhibition zones, CAN 107
[18] = read-out: inhibition zones, CAN 108
[19] = read-out: inhibition zones, CAN 109
[20] = read-out: inhibition zones, CAN 110
[21] = read-out: inhibition zones, CAN 111
[22] = read-out: inhibition zones, CAN 112
[23] = read-out: inhibition zones, CAN 113
[24] = read-out: inhibition zones, CAN 114
[25] = read-out: inhibition zones, CAN 115
[26] = read-out: inhibition zones, CAN 116
[27] = read-out: inhibition zones, CAN 117
[28] = read-out: inhibition zones, CAN 118
[29] = read-out: inhibition zones, CAN 119
[30] = read-out: inhibition zones, CAN 120
[31] = read-out: inhibition zones, CAN 121
[32] = read-out: inhibition zones, CAN 122
[33] = read-out: inhibition zones, CAN 123
[34] = read-out: inhibition zones, CAN 124
[35] = read-out: inhibition zones, CAN 125
[36] = read-out: inhibition zones, CAN 126

Cc1ccc(C(C)C)c(O)c1 [Thymol]
zone of inhibition at 100 µg/disc (E. coli CAO3): 2 mm | zone of inhibition at 100 µg/disc ([1]; read-out: inhibition zones, MSL 101): 1 mm | zone of inhibition at 100 µg/disc ([1]; read-out: inhibition zones, MSL 102): 1 mm | zone of inhibition at 100 µg/disc ([1]; read-out: inhibition zones, MSL 103): 1 mm | zone of inhibition at 100 µg/disc ([1]; read-out: inhibition zones, MSL 104): 1 mm | zone of inhibition at 100 µg/disc ([1]; read-out: inhibition zones, MSL 105): 1 mm | zone of inhibition at 100 µg/disc ([1]; read-out: inhibition zones, MSL 106): < 0.5 mm | zone of inhibition at 100 µg/disc ([1]; read-out: inhibition zones, MSL 107): 1 mm | zone of inhibition at 100 µg/disc ([1]; read-out: inhibition zones, MSL 108): 1 mm | zone of inhibition at 100 µg/disc ([1]; read-out: inhibition zones, MSL 109): 1 mm | zone of inhibition at 150000 µg/mL ([1]; read-out: inhibition zones, MSL 109, 150 mg/ml): 2.5 mm | zone of inhibition at 100 µg/disc ([1]; read-out: inhibition zones, MSL 110): 1 mm | zone of inhibition at 100 µg/disc ([1]; read-out: inhibition zones, MSL 111): 1 mm | zone of inhibition at 100 µg/disc ([1]; read-out: inhibition zones, MSL 112): 1 mm | zone of inhibition at 12.5 µg/disc (E. coli cells [2]; thymol 12.5 μg/disc): < 0.5 mm | zone of inhibition at 25 µg/disc (E. coli cells [2]; thymol 25.0 μg/disc): 2 mm | zone of inhibition at 50 µg/disc (E. coli cells [2]; thymol 50.0 μg/disc): 3 mm | zone of inhibition at 75 µg/disc (E. coli cells [2]; thymol 75.0 μg/disc): 5 mm | zone of inhibition at 100 µg/disc (E. coli cells [2]; thymol 100.0 μg/disc): 6 mm | zone of inhibition at 20000 µg/mL [3]: 3 mm | zone of inhibition at 50000 µg/mL [3]: 6 mm | zone of inhibition at 100 µg/disc (E. coli CAO3 (revert)): 8 mm | zone of inhibition at 100 µg/disc ([4]; read-out: Activity of thymol (zone)): 8 mm | zone of inhibition at 50 µg/disc ([4]; read-out: inhibition zones): 1 mm | zone of inhibition at 100 µg/disc ([4]; read-out: inhibition zones): 2 mm | zone of inhibition at 250 µg/disc ([4]; read-out: inhibition zones): 4 mm | zone of inhibition at 150000 µg/mL ([4]; read-out: inhibition zones): 3 mm | increase of the antibacterial activity of thymol [5]: 45% | inhibition zone ([6]; 25 μg/disc, pH 4.00): trace | zone of inhibition at 25 µg/disc ([6]; 25 μg/disc, pH 7.00): 1 mm | zone of inhibition at 50 µg/disc ([6]; 1M NaOH): 1 mm | zone of inhibition at 50 µg/disc ([6]; pH 4.00): 2 mm | zone of inhibition at 50 µg/disc ([6]; pH 7.00): 2 mm | zone of inhibition at 50 µg/disc ([6]; pH 9.00): 1 mm | zone of inhibition at 100 µg/disc ([6]; 1M NaOH): 2 mm | zone of inhibition at 100 µg/disc ([6]; pH 4.00): 4 mm | zone of inhibition at 100 µg/disc ([6]; pH 7.00): 6 mm | zone of inhibition at 100 µg/disc ([6]; pH 9.00): 3 mm | zone of inhibition at 10000 µg/mL [7]: 1 mm | zone of inhibition at 20000 µg/mL [7]: 2 mm | zone of inhibition at 50000 µg/mL [7]: 5 mm | zone of inhibition at 250 µg/disc ([7]; read-out: inhibition zones): 4 mm | inhibition zones ([8]; CAN 101): Tr. | inhibition zones ([8]; CAN 102): Tr. | inhibition zones ([8]; CAN 103): Tr. | inhibition zones ([8]; CAN 104): Tr. | inhibition zones ([8]; CAN 105): Tr. | inhibition zones ([8]; CAN 108): Tr. | inhibition zones ([8]; CAN 113): Tr. | inhibition zones ([8]; CAN 122): Tr. | zone of inhibition at 100 µg/disc ([8]; read-out: inhibition zones, CAN 101): 1.5 mm | zone of inhibition at 100 µg/disc [8, 13]: 2 mm | zone of inhibition at 250 µg/disc [8, 13]: 7 mm | zone of inhibition at 100 µg/disc ([8]; read-out: inhibition zones, CAN 103): 2 mm | zone of inhibition at 100 µg/disc [8, 14]: 2 mm | zone of inhibition at 250 µg/disc [8, 14]: 6 mm | zone of inhibition at 100 µg/disc [8, 15]: 2 mm | zone of inhibition at 250 µg/disc [8, 15]: 5 mm | zone of inhibition at 50 µg/disc [8, 16]: 1 mm | zone of inhibition at 100 µg/disc [8, 16]: 2 mm | zone of inhibition at 50 µg/disc [8, 17]: 1 mm | zone of inhibition at 100 µg/disc [8, 17]: 3 mm | zone of inhibition at 250 µg/disc [8, 17]: 5 mm | zone of inhibition at 100 µg/disc [8, 18]: 2 mm | zone of inhibition at 250 µg/disc [8, 18]: 5 mm | zone of inhibition at 50 µg/disc [8, 19]: 1 mm | zone of inhibition at 100 µg/disc [8, 19]: 3 mm | zone of inhibition at 250 µg/disc [8, 19]: 6 mm | zone of inhibition at 50 µg/disc [8, 20]: 1 mm | zone of inhibition at 100 µg/disc [8, 20]: 3 mm | zone of inhibition at 250 µg/disc [8, 20]: 6 mm | zone of inhibition at 50 µg/disc [8, 21]: 1 mm | zone of inhibition at 100 µg/disc [8, 21]: 3 mm | zone of inhibition at 250 µg/disc [8, 21]: 5 mm | zone of inhibition at 50 µg/disc [8, 22]: 1 mm | zone of inhibition at 100 µg/disc [8, 22]: 3 mm | zone of inhibition at 250 µg/disc [8, 22]: 5 mm | zone of inhibition at 100 µg/disc [8, 23]: 2 mm | zone of inhibition at 250 µg/disc [8, 23]: 5 mm | zone of inhibition at 50 µg/disc [8, 24]: 1 mm | zone of inhibition at 100 µg/disc [8, 24]: 3 mm | zone of inhibition at 250 µg/disc [8, 24]: 6 mm | zone of inhibition at 50 µg/disc [8, 25]: 1 mm | zone of inhibition at 100 µg/disc [8, 25]: 3 mm | zone of inhibition at 250 µg/disc [8, 25]: 5 mm | zone of inhibition at 50 µg/disc [8, 26]: 1 mm | zone of inhibition at 100 µg/disc [8, 26]: 3 mm | zone of inhibition at 250 µg/disc [8, 26]: 5 mm | zone of inhibition at 50 µg/disc [8, 27]: 1 mm | zone of inhibition at 100 µg/disc [8, 27]: 3 mm | zone of inhibition at 250 µg/disc [8, 27]: 5 mm | zone of inhibition at 50 µg/disc [8, 28]: 1 mm | zone of inhibition at 100 µg/disc [8, 28]: 3 mm | zone of inhibition at 250 µg/disc [8, 28]: 5 mm | zone of inhibition at 50 µg/disc [8, 29]: 1 mm | zone of inhibition at 100 µg/disc [8, 29]: 3 mm | zone of inhibition at 250 µg/disc [8, 29]: 6 mm | zone of inhibition at 50 µg/disc [8, 30]: 1 mm | zone of inhibition at 100 µg/disc [8, 30]: 3 mm | zone of inhibition at 250 µg/disc [8, 30]: 6 mm | zone of inhibition at 50 µg/disc [8, 31]: 1 mm | zone of inhibition at 100 µg/disc [8, 31]: 3 mm | zone of inhibition at 250 µg/disc [8, 31]: 5 mm | zone of inhibition at 100 µg/disc [8, 32]: 2 mm | zone of inhibition at 250 µg/disc [8, 32]: 5 mm | zone of inhibition at 50 µg/disc [8, 33]: 1 mm | zone of inhibition at 100 µg/disc [8, 33]: 3 mm | zone of inhibition at 250 µg/disc [8, 33]: 5 mm | zone of inhibition at 50 µg/disc [8, 34]: 1 mm | zone of inhibition at 100 µg/disc [8, 34]: 3 mm | zone of inhibition at 250 µg/disc [8, 34]: 5 mm | zone of inhibition at 50 µg/disc [8, 35]: 1 mm | zone of inhibition at 100 µg/disc [8, 35]: 3 mm | zone of inhibition at 250 µg/disc [8, 35]: 5 mm | zone of inhibition at 50 µg/disc [8, 36]: 1 mm | zone of inhibition at 100 µg/disc [8, 36]: 2 mm | zone of inhibition at 250 µg/disc [8, 36]: 5 mm | zone of inhibition at 100 µg/disc [9]: 11 mm | zone of inhibition at 50 µg/disc ([10]; read-out: inhibition zones, CAL 101, 50 μg/disc): 2 mm | zone of inhibition at 100 µg/disc ([10]; read-out: inhibition zones, CAL 101, 100 μg/disc): 4 mm | zone of inhibition at 100 µg/disc ([10]; read-out: inhibition zones, CAL 102, 100 μg/disc): 5 mm | zone of inhibition at 50 µg/disc ([10]; read-out: inhibition zones, CAL 103, 50 μg/disc): 2 mm | zone of inhibition at 100 µg/disc ([10]; read-out: inhibition zones, CAL 103, 100 μg/disc): 3 mm | zone of inhibition at 50 µg/disc ([10]; read-out: inhibition zones, CAL 104, 50 μg/disc): 1 mm | zone of inhibition at 100 µg/disc ([10]; read-out: inhibition zones, CAL 104, 100 μg/disc): 1.5 mm | zone of inhibition at 50 µg/disc ([10]; read-out: inhibition zones, CAL 105, 50 μg/disc): 2 mm | zone of inhibition at 100 µg/disc ([10]; read-out: inhibition zones, CAL 105, 100 μg/disc): 4 mm | zone of inhibition at 50 µg/disc ([10]; read-out: inhibition zones, CAL 106, 50 μg/disc): 2 mm | zone of inhibition at 100 µg/disc ([10]; read-out: inhibition zones, CAL 106, 100 μg/disc): 4 mm | zone of inhibition at 50 µg/disc ([10]; read-out: inhibition zones, CAL 107, 50 μg/disc): 2 mm | zone of inhibition at 100 µg/disc ([10]; read-out: inhibition zones, CAL 107, 100 μg/disc): 4 mm | zone of inhibition at 100 µg/disc ([10]; read-out: inhibition zones, CAL 108, 100 μg/disc): 5 mm | zone of inhibition at 50000 µg/mL [11]: 5.5 mm | zone of inhibition at 50 µg/disc (E. coli cells [12]): 3 mm

From patent publication US20020090380A1, “Novel formulation comprising thymol useful in the treatment of drug resistant bacterial infections” (priority 2000, published 2002)
